Measurements published in patent US11117887B2, “Aryl substituted pyrimidines for use in influenza virus infection” (Janssen Sciences Ireland Unlimited Company, priority 2016, dated 2021).

Tests used:
[1] = in vitro; conditions: dog
[2] = tested on: influenza virus A/Taiwan/1/86 (H1N1); assay: organism not typed; format: cell-based; conditions: 72 h; CPE in infected MDCK cells, ATP levels (ATPlite), three days post-virus exposure

Compound	CC50 at 3 days [1] [nM]	IC50 [2] [nM]	melting point [°C]
Cc1nccc(N[C@H]2CCC[C@@H](Nc3nc(-c4c[nH]c5c(F)cc(F)cc45)ncc3F)C2)n1 [Compound 10]	2880	20	–
Cc1cc(N[C@@H]2CCC[C@H](Nc3nc(-c4c[nH]c5c(F)cc(F)cc45)ncc3F)C2)ncn1 [Compound 11]	5970	8	–
Nc1ncc(F)c(N[C@@H]2CCC[C@H](Nc3nc(-c4c[nH]c5c(F)cc(F)cc45)ncc3F)C2)n1 [Compound 12]	> 1000	6	–
Nc1nc(N[C@H]2CCC[C@@H](Nc3nc(-c4c[nH]c5c(F)cc(F)cc45)ncc3F)C2)c2ccccc2n1 [Compound 13]	11600	20	–
N#Cc1nccc(N[C@@H]2CCC[C@H](Nc3nc(-c4c[nH]c5c(F)cc(F)cc45)ncc3F)C2)n1 [Compound 14]	3150	8	215.6
COc1nccc(N[C@@H]2CCC[C@H](Nc3nc(-c4c[nH]c5c(F)cc(F)cc45)ncc3F)C2)n1 [Compound 15]	3190	75	139.6
Fc1cc(F)c2[nH]cc(-c3ncc(F)c(N[C@H]4CCC[C@@H](Nc5ccnc(Cl)n5)C4)n3)c2c1 [Compound 16]	2170	8	–
Fc1cc(F)c2[nH]cc(-c3ncc(F)c(N[C@H]4CCC[C@@H](Nc5ccncn5)C4)n3)c2c1 [Compound 18]	8340	8	166.5
Fc1cc(F)c2[nH]cc(-c3ncc(F)c(N[C@H]4CCC[C@@H](Nc5ncncc5F)C4)n3)c2c1 [Compound 19]	> 25000	140	215.6
Cc1nc(-c2c[nH]c3c(F)cc(F)cc23)nc(N[C@@H]2CCC[C@H](Nc3cc(C(F)(F)F)nc(Cl)n3)C2)c1F [Compound 35]	890	30	–
Cc1nc(Cl)nc(N[C@@H]2CCC[C@H](Nc3nc(-c4c[nH]c5c(F)cc(F)cc45)nc(C)c3F)C2)c1F [Compound 36]	> 25000	2	–
Cc1nc(-c2c[nH]c3c(F)cc(F)cc23)nc(N[C@H]2CCC[C@@H](Nc3nc(Cl)nc4c3CCCC4)C2)c1F [Compound 37]	> 25000	11	–
Cc1nc(-c2c[nH]c3c(F)cc(F)cc23)nc(N[C@H]2CCC[C@@H](Nc3nc(Cl)nc4c3CCC4)C2)c1F [Compound 38]	> 25000	1	–
Cc1nc(-c2c[nH]c3c(F)cc(F)cc23)nc(N[C@H]2CCC[C@@H](Nc3nc(Cl)nc4sccc34)C2)c1F [Compound 39]	> 25000	3	–
Cc1nc(-c2c[nH]c3c(F)cc(F)cc23)nc(N[C@H]2CCC[C@@H](Nc3cncc(Cl)n3)C2)c1F [Compound 40]	> 25000	24	201.8
Cc1nc(-c2c[nH]c3c(F)cc(F)cc23)nc(N[C@H]2CCC[C@@H](Nc3ncc(C4CC4)c(Cl)n3)C2)c1F [Compound 41]	> 25000	39	222.7
Cc1nc(-c2c[nH]c3c(F)cc(F)cc23)nc(N[C@H]2CCC[C@@H](Nc3nc(Cl)ncc3C3CC3)C2)c1F [Compound 42]	> 25000	41	–
Cc1nc(-c2c[nH]c3c(F)cc(F)cc23)nc(N[C@H]2CCC[C@@H](Nc3nc(O)ncc3C#N)C2)c1F [Compound 43]	> 25000	0.6	–
Cc1cnc(Cl)nc1N[C@@H]1CCC[C@H](Nc2nc(-c3c[nH]c4c(F)cc(F)cc34)nc(C)c2F)C1 [Compound 44]	> 25000	10	185.4
COc1cnc(Cl)nc1N[C@@H]1CCC[C@H](Nc2nc(-c3c[nH]c4c(F)cc(F)cc34)nc(C)c2F)C1 [Compound 45]	> 25000	36	246.6
Cc1cc(N[C@@H]2CCC[C@H](Nc3nc(-c4c[nH]c5c(F)cc(F)cc45)nc(C)c3F)C2)ncn1 [Compound 46]	> 25000	2	–
Cc1nc(-c2c[nH]c3c(F)cc(F)cc23)nc(N[C@H]2CCC[C@@H](Nc3ncnc4nc[nH]c34)C2)c1F [Compound 47]	11000	0.7	–
Cc1cc(N[C@@H]2CCC[C@H](Nc3nc(-c4c[nH]c5c(F)cc(F)cc45)nc(C(=O)O)c3F)C2)nc(Cl)n1 [Compound 54]	> 25000	61	–
Cc1cc(N[C@@H]2CCC[C@H](Nc3nc(-c4c[nH]c5ncncc45)nc(C)c3F)C2)ncn1 [Compound 64]	> 25000	8	–
Cc1ccnc(N[C@@H]2CCC[C@H](Nc3nc(-c4c[nH]c5ncncc45)nc(C)c3F)C2)n1 [Compound 65]	> 25000	7	–
Cc1cc(O[C@@H]2CCC[C@H](Nc3nc(-c4c[nH]c5c(F)cc(F)cc45)nc(C)c3F)C2)ncn1 [Compound 71]	2200	13	–
